{
  "source": "patent EP2070527A1",
  "about": "“Inhibitors of fungal biofilm-formation” (QuoNova Europe GmbH, priority 2007, dated 2009)",
  "system": "Candida paratropicalis",
  "experiment": "MBEC assay (biofilm inhibition)",
  "assay_type": "cell-based",
  "conditions": "biofilm grown 24 hours at 37±2°C on pegs, logR = log reduction; for log reduction at 10 µM: test compound 10 µM; for log reduction at 100 µM: test compound 100 µm (so in the source)",
  "procedure": "TEST METHOD: MBEC™ Assay The compound to be tested was dissolved in DMSO to obtain a concentration that was 100 times that of the final concentration required (1mM for the 10µM assay and 10mM for the 100µM assay). 1.5 µL of the above solution was placed into each well of a 96 well plate (final volume in each well = 150 µL, final DMSO concentration of 1% (v/v)). To grow the organism and form a biofilm, a cryogenic stock of Candida paratropicalis (at - 70°C) was used. A first sub-culture was streaked out onto TSA (tryptic soy agar), upon which the plate was incubated at 37±2°C for 24 hours and stored wrapped in parafilm at 4 °C afterwards. From this first sub-culture, a second sub-culture was streaked out onto TSA. The plate was incubated at 37±2°C for 24 hours. The second sub-culture was used within 24 hours starting from the time it was first removed from incubation. Using the second sub-culture an inoculum in 3 mL sterile water that matches a 0.5 McFarland Standard (1.5 x 10^8 cells per mL) was created in a glass test tube using a sterile cotton swab. […] of this solution was diluted in 22mL TSB (tryptic soy broth) medium to a cell density of approximately 6.0 x 10^5 cells per mL. The diluted organism was inverted 3-5 times to achieve uniform mixing of the organism. One sample (100µl) of the diluted organism was used for an inoculum check by serially diluting and spot plating on TSA. To prepare a challenge plate, 20 µl of the diluted organism was added to each well of a 96 well plate except the sterility control wells. The test compounds were added to the wells to make up final concentrations of 10 µM and 100 µM (1.5 µL /well) in the designated location in the test plate. 128.5 µL of TSB was placed in each of the wells. 130 µL of media was added to the growth control wells. 128.5 µL of media+ 1.5 µL of DMSO were added to a second set of growth control wells. 150 µL of media was added to the sterility controls. Each sample was run in triplicate. The plate was covered by a lid with a peg per well and wrapped in parafilm and placed on a shaker in a humidified incubator (GeneVac) at 37±2°C for 24 hours set at 110 rpm. Rinse plate(s) of 0.9% saline (200 µL per well) were prepared in a sterile 96 well microtitre plate. Lid-associated pegs were rinsed in 0.9% saline for approximately 1-2 minutes. The peg lid was transferred to the recovery media (1.0% Tween 80 in CAMHB) then sonicated for 30 minutes to dislodge surviving biofilm. Following sonication, 100 µl from each well of the 96 well plate was placed into the first 12 wells of the first row of a 96 well microtiter plate. 180 µl of 0.9% sterile saline was placed in the remaining rows. A serial dilution (10^0-10^-7) was prepared by moving 20 µl down each of the 8 rows. 20µl from each well was removed and spot plated on a prepared TSA. In the remaining recovery plate, 100 µl of fresh growth media (1.0% Tween 80 in CAMHB) was placed in each well to replace the amount removed. The recovery plate was covered with a regular lid and incubated at 37±2°C for 24 hours and read visually to confirm antimicrobial activity of the test compounds. The following compounds have been tested regarding their efficiency (logR = log reduction) against Candida paratropicalis: […]",
  "data": [
    {"compound": "CCCCCCC(=O)CC(=O)Nc1ccno1", "note": "[Example 2]", "values": [
      {"measurement": "log reduction at 10 µM", "result": 1.12},
      {"measurement": "log reduction at 100 µM", "result": 0.65}
    ]},
    {"compound": "CCCCCCCCCC(=O)CC(=O)Nc1ccno1", "note": "[Example 3]", "values": [
      {"measurement": "log reduction at 10 µM", "result": 1.26},
      {"measurement": "log reduction at 100 µM", "result": 1.1}
    ]},
    {"compound": "CCCCCCCCCC(=O)CC(=O)Nc1nc(C)co1", "note": "[Example 4]", "values": [
      {"measurement": "log reduction at 100 µM", "result": 1.71}
    ]},
    {"compound": "CCCCCCCCCC(=O)CC(=O)N1CCN(C)CC1", "note": "[Example 5]", "values": [
      {"measurement": "log reduction at 100 µM", "result": 2.83}
    ]},
    {"compound": "CCCCCCCCCC(=O)CC(=O)N1CCC(N(C)C)C1", "note": "(centres unmarked) [Example 6]", "values": [
      {"measurement": "log reduction at 100 µM", "result": 3.87}
    ]},
    {"compound": "CCCCCCCCCC(=O)CC(=O)N(C)c1ccc(F)cc1", "note": "[Example 1]", "values": [
      {"measurement": "log reduction at 100 µM", "result": 0.62}
    ]}
  ]
}
